The text below walks through data of patent publication US20190211020A1 (Agency for Science, Technology and Research, priority 2012, published 2019).

Like-named read-outs stand apart in the source and are kept apart here. A value given as a limit tells only on which side of the number the result lay.

Data set [1] is described as follows: Pharmacokinetics assays (plasma and brain). Also noted: AUC(0-t) / AUC(0-inf): concentration or dose not given beside the values. It counts as in vivo. The conditions noted are these: for AUC(0-t): read-out: Plasma AUC last; for Cmax: species, dose and route not given; for Plasma/Brain Ratio: in vivo.
For data set [2], the system named is eIF4E Ser209 phosphorylation in Hela cells. The experiment in a line: MNK cell-based assay (AlphaScreen SureFire, eIF4E Ser209 phosphorylation). As to conditions: Homo sapiens, read-out: IC50 Hela. Summed up: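 Hela cells (30,000/well) exposed to test compound in serum-free medium for 2 h at 37 °C, then lysed. Phospho-Ser209 eIF4E quantified by AlphaScreen SureFire; IC50 obtained by non-linear regression of signal versus log compound concentration.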

Setting [3] is: brain, read-out: Brain T1/2 (converted).
[4] abbreviates: plasma, read-out: Plasma T1/2 (converted).
The mark [5] stands for this setting: eIF4E Ser209 phosphorylation, Hela cells, 2 hours.

Regarding `CN1CCN(C(=O)c2ccc(-c3cn4c(-c5ccc(C#N)cc5)cnc4cn3)cc2)CC1` [Entry 1], in data set [1] (brain), the “Brain AUC inf” value stood at 625 ng·h/g, the “Brain AUC last” value amounted to 520 ng·h/g and the “Brain Cmax” value is given as 290 ng/g. Besides, the half-life in data set [1] (setting [3]) was 1.39 h. Further, the time of peak concentration (Tmax) (commonly the time from dosing to the highest level) in data set [1] (brain, read-out: Brain Tmax) was 0.5 h. Moreover, in data set [1] (plasma), the AUC(0-inf) (in general, total exposure, with the tail of the curve extrapolated) was found to be 7440 ng·h/mL; the AUC(0-t) came to 7420 ng·h/mL; the maximum concentration (Cmax) (as a rule, the maximum level reached in the sampled fluid or tissue) was 2670 ng/mL. The half-life in data set [1] (setting [4]) is 3.02 h. Also, in data set [1] (plasma, read-out: Plasma Tmax), the time to peak (Tmax) was found to be 0.25 h.

Take `CN(C)C1CCN(C(=O)c2ccc(-c3cn4c(-c5ccc(C#N)cc5)cnc4cn3)cc2)CC1` [Entry 2]: in data set [1] (brain), the “Brain AUC inf” value was 99 ng·h/g, the “Brain AUC last” value was found to be 71 ng·h/g and the “Brain Cmax” value turned out to be 14.6 ng/g. For the same compound, the half-life in data set [1] (setting [3]) was 4.11 h. In addition, in data set [1] (brain, read-out: Brain Tmax), the Tmax worked out at 0.25 h. Besides, the “Plasma/Brain Ratio” value in data set [1] is 0.13. For the same compound, in data set [1] (plasma), the total exposure AUC(0-inf) was determined as 536 ng·h/mL, the AUC(0-t) worked out at 527 ng·h/mL and the Cmax is 227 ng/mL. Also, the half-life in data set [1] (setting [4]) was 2.06 h. The Tmax in data set [1] (plasma, read-out: Plasma Tmax) stood at 0.25 h.

Consider `CN1CCN(C(=O)c2ccc(-c3ccc4ncc(-c5ccc(C#N)cc5)n4c3)cc2)CC1=O` [Entry 3], for which, in data set [1] (brain), the “Brain AUC inf” value worked out at 77 ng·h/g, the “Brain AUC last” value is 59 ng·h/g and the “Brain Cmax” value is reported as 77.78 ng/g. Besides, the half-life in data set [1] (setting [3]) was 0.96 h. In addition, in data set [1] (brain, read-out: Brain Tmax), the time of peak concentration (Tmax) was 0.25 h. Moreover, in data set [1], the “Plasma/Brain Ratio” value is reported as 0.01. Further, in data set [1] (plasma), the area under the curve AUC(0-inf) turned out to be 4190 ng·h/mL, the AUC(0-t) is 4120 ng·h/mL and the maximum concentration (Cmax) was 3160 ng/mL. The half-life in data set [1] (setting [4]) is 2.51 h. Besides, the time to peak (Tmax) in data set [1] (plasma, read-out: Plasma Tmax) amounted to 0.25 h.

For `CN1CCN(C2CCN(C(=O)c3ccc(-c4ccc5ncc(-c6ccc(C#N)cc6)n5c4)cc3)CC2)CC1` [Entry 4], in data set [1] (brain), the “Brain AUC last” value turned out to be 184 ng·h/g and the “Brain Cmax” value is reported as 20 ng/g. For the same compound, in data set [1] (brain, read-out: Brain Tmax), the time of peak concentration (Tmax) is 8 h. The “Plasma/Brain Ratio” value in data set [1] stood at 0.3. In data set [1] (plasma), the area under the curve AUC(0-inf) was found to be 632 ng·h/mL, the AUC(0-t) was 614 ng·h/mL and the concentration peaked (Cmax) at 223 ng/mL. In addition, in data set [1] (setting [4]), the half-life is 2.38 h. Moreover, the Tmax in data set [1] (plasma, read-out: Plasma Tmax) was found to be 0.25 h.

For `N#Cc1ccc(-c2cnc3ccc(-c4ccc(C(=O)N5CCOCC5)cc4)nn23)cc1` [Entry 5], in data set [1] (brain), the “Brain AUC inf” value worked out at 8951 ng·h/g, the “Brain AUC last” value stood at 8811 ng·h/g and the “Brain Cmax” value was 1724 ng/g. The half-life in data set [1] (setting [3]) is 4.28 h. In data set [1] (plasma), the AUC(0-inf) stood at 76500 ng·h/mL, the AUC(0-t) stood at 74700 ng·h/mL and the concentration peaked (Cmax) at 13400 ng/mL. The half-life in data set [1] (setting [4]) was 4.33 h.

Regarding `N#Cc1ccc(-c2cnc3ccc(-c4ccc(C(=O)N5CCNCC5)cc4)nn23)cc1` [Entry 6], in data set [1] (brain), the “Brain AUC last” value amounted to 17 ng·h/g and the “Brain Cmax” value is listed as 10 ng/g. The time of peak concentration (Tmax) in data set [1] (brain, read-out: Brain Tmax) came to 0.25 h. The “Plasma/Brain Ratio” value in data set [1] was 0.05. For the same compound, in data set [1] (plasma), the AUC(0-inf) turned out to be 359 ng·h/mL, the AUC(0-t) was 350 ng·h/mL and the Cmax turned out to be 275 ng/mL. The half-life in data set [1] (setting [4]) is 1.59 h. Also, the Tmax in data set [1] (plasma, read-out: Plasma Tmax) was 0.25 h.

On to `N#Cc1ccc(-c2cnc3ccc(-c4ccc(C(=O)N5CCOCC5)cc4)cn23)cc1` [Entry 7], for which, in data set [1] (brain), the “Brain AUC inf” value was found to be 2516 ng·h/g, the “Brain AUC last” value is 2474 ng·h/g and the “Brain Cmax” value worked out at 678 ng/g. Moreover, the half-life in data set [1] (setting [3]) is 2.05 h. For the same compound, in data set [1] (brain, read-out: Brain Tmax), the Tmax is 1 h. Also, in data set [1] (plasma), the area under the curve AUC(0-inf) turned out to be 26000 ng·h/mL, the AUC(0-t) stood at 26000 ng·h/mL and the concentration peaked (Cmax) at 7360 ng/mL. Moreover, the half-life in data set [1] (setting [4]) was 2.94 h. In addition, in data set [1] (plasma, read-out: Plasma Tmax), the time to peak (Tmax) stood at 0.25 h.

With `N#Cc1ccc(-c2cnc3ccc(-c4ccc(C(=O)N5CCNCC5)c(O)c4)cn23)cc1` [Example 159, 4-(6-(3-hydroxy-4-(piperazine-1-carbonyl)phenyl)imidazo[1,2-a]pyridin-3-yl)benzonitrile], the IC50 (usually the concentration that inhibits the measured activity by half) in data set [2] (setting [5]) is below 1000 nM.

`N#Cc1ccc(-c2cnc3ccc(-c4ccc(C(=O)N5CCOCC5)c(N5CCOCC5)c4)cn23)cc1` [Example 160, 4-(6-[3-(morpholin-4-yl)-4-(morpholin-4-ylcarbonyl)phenyl]imidazo[1,2-a]pyridin-3-yl)benzonitrile]: in data set [2] (setting [5]), the IC50 is below 1000 nM.

With `N#Cc1ccc(-c2cnc3ccc(-c4ccc(C(=O)N5CCOCC5)c(F)c4)cn23)cc1` [Example 162, 4-(6-(3-fluoro-4-(morpholine-4-carbonyl)phenyl)imidazo [1,2-a]pyridin-3-yl)benzonitrile], the IC50 in data set [2] (setting [5]) was below 1000 nM.

For `CC1(N2CCOCC2)CCN(C(=O)c2ccc(-c3ccc4ncc(-c5ccc(C#N)cc5)n4c3)cc2)CC1` [Example 163, 4-(6-(4-(4-methyl-4-morpholinopiperidine-1-carbonyl)phenyl)imidazo [1,2-a]pyridin-3-yl)benzonitrile], in data set [2] (setting [5]), the IC50 was below 1000 nM.

Regarding `CN1CCN(C2(C)CCN(C(=O)c3ccc(-c4ccc5ncc(-c6ccc(C#N)cc6)n5c4)cc3)CC2)CC1` [Example 164, 4-(6-(4-(4-methyl-4-(4-methylpiperazin-1-yl)piperidine-1-carbonyl)phenyl)imidazo [1,2-a]pyridin-3-yl)benzonitrile], the IC50 in data set [2] (setting [5]) is below 1000 nM.

As for `N#Cc1ccc(-c2cnc3ccc(-c4ccc(C(=O)N5CCNCC5)cc4)cn23)cc1` [Example 165, 4-(6-(4-(piperazine-1-carbonyl)phenyl)imidazo [1,2-a]pyridin-3-yl)benzonitrile], the half-maximal inhibitory concentration (IC50) in data set [2] (setting [5]) was below 1000 nM.

`CC(=O)Nc1cc(-c2ccc3ncc(-c4ccc(C#N)cc4)n3c2)ccc1C(=O)N1CCOCC1` [Example 166, N-(5-(3-(4-cyanophenyl)imidazo[1,2-a]pyridin-6-yl)-2-(morpholine-4-carbonyl)phenyl)acetamide]: the 50% inhibitory concentration (IC50) in data set [2] (setting [5]) is below 1000 nM.

Regarding `N#Cc1ccc(-c2cnc3ccc(-c4ccc(C(=O)N5CCOCC5)c(O)c4)cn23)cc1` [Example 167, 4-(6-(3-hydroxy-4-(morpholine-4-carbonyl)phenyl)imidazo[1,2-a]pyridin-3-yl)benzonitrile], in data set [2] (setting [5]), the half-inhibitory concentration (IC50) was below 1000 nM.

In the case of `CNC1CCN(C(=O)c2ccc(-c3ccc4ncc(-c5ccc(C#N)cc5)n4c3)cc2NC(C)=O)CC1` [Example 169, N-(5-(3-(4-cyanophenyl)imidazo[1,2-a]pyridin-6-yl)-2-(4-(methylamino)piperidine-1-carbonyl)phenyl)acetamide], the IC50 in data set [2] (setting [5]) is below 1000 nM.

Consider `CC(=O)Nc1cc(-c2ccc3ncc(-c4ccc(C#N)cc4)n3c2)ccc1C(=O)N1CCNCC1` [Example 170, N-(5-(3-(4-cyanophenyl)imidazo[1,2-a]pyridin-6-yl)-2-(piperazine-1-carbonyl)phenyl)acetamide], for which the IC50 in data set [2] (setting [5]) was below 1000 nM.

On to `COC1(C)CCN(C(=O)c2ccc(-c3ccc4ncc(-c5ccc(C#N)cc5)n4c3)cc2)CC1` [Example 172, 4-(6-(4-(4-methoxy-4-methylpiperidine-1-carbonyl)phenyl)imidazo[1,2-a]pyridin-3-yl)benzonitrile], for which, in data set [2] (setting [5]), the half-inhibitory concentration (IC50) is below 1000 nM.

On to `CC1(N)CCN(C(=O)c2ccc(-c3ccc4ncc(-c5ccc(Cl)cc5)n4c3)cc2)CC1` [Example 173, (4-amino-4-methylpiperidin-1-yl)(4-(3-(4-chlorophenyl)imidazo [1,2-a]pyridin-6-yl)phenyl)methanone], for which the half-maximal inhibitory concentration (IC50) in data set [2] (HeLa, 2 h) is below 1000 nM.

As for `NC1CCN(C(=O)c2ccc(-c3ccc4ncc(-c5ccc(Cl)cc5)n4c3)cc2)CC1` [Example 174, (4-aminopiperidin-1-yl)(4-(3-(4-chlorophenyl)imidazo[1,2-a]pyridin-6-yl)phenyl)methanone], the concentration for half-maximal inhibition (IC50) in data set [2] (setting [5]) was below 1000 nM.

For the compound `CN1CCN(C2CCN(C(=O)c3ccc(-c4ccn5ncc(-c6ccc(C#N)cc6)c5n4)cc3)CC2)CC1` [Example 179, 4-(5-(4-(4-(4-methylpiperazin-1-yl)piperidine-1-carbonyl)phenyl)pyrazolo[1,5-a]pyrimidin-3-yl)benzonitrile], the half-inhibitory concentration (IC50) in data set [2] (setting [5]) was below 1000 nM.

For `N#Cc1ccc(-c2cnn3ccc(-c4ccc(C(=O)N5CCCOCC5)cc4)nc23)cc1` [Example 181, 4-(5-(4-(1,4-oxazepane-4-carbonyl)phenyl)pyrazolo[1,5-a]pyrimidin-3-yl)benzonitrile], the IC50 in data set [2] (setting [5]) was below 1000 nM.

For the compound `N#Cc1ccc(-c2cnn3ccc(-c4ccc(C(=O)N5CCNCC5)cc4)nc23)cc1` [Example 183, 4-(5-(4-(piperazine-1-carbonyl)phenyl)pyrazolo[1,5-a]pyrimidin-3-yl)benzonitrile], the IC50 in data set [2] (setting [5]) was below 1000 nM.

Regarding `CC(=O)N1CCN(C(=O)c2ccc(-c3ccn4ncc(-c5ccc(C#N)cc5)c4n3)cc2)CC1` [Example 184], the half-maximal inhibitory concentration (IC50) in data set [2] (setting [5]) was below 1000 nM.

As to `N#Cc1ccc(-c2cnn3ccc(-c4ccc(C(=O)N5CCOCC5)cc4)nc23)cc1` [Example 185, 4-(5-(4-(morpholine-4-carbonyl)phenyl)pyrazolo [1,5-a]pyrimidin-3-yl)benzonitrile], in data set [2] (setting [5]), the IC50 was below 1000 nM.

As to `CC(=O)NC1CCN(C(=O)c2ccc(-c3ccn4ncc(-c5ccc(C#N)cc5)c4n3)cc2)CC1` [Example 186, N-(1-(4-(3-(4-cyanophenyl)pyrazolo[1,5-a]pyrimidin-5-yl)benzoyl)piperidin-4-yl)acetamide], in data set [2] (setting [5]), the IC50 was below 1000 nM.

For `N#Cc1ccc(-c2cnn3ccc(-c4ccc(C(=O)N5CCOCC5)c(O)c4)nc23)cc1` [Example 187, 4-(5-(3-hydroxy-4-(morpholine-4-carbonyl)phenyl)pyrazolo [1,5-a]pyrimidin-3-yl)benzonitrile], the IC50 in data set [2] (setting [5]) was below 1000 nM.

Take `N#Cc1ccc(-n2cnc3ccc(-c4ccc(C(=O)N5CCOCC5)cc4)cc32)cc1` [Example 190, 4-(6-(4-(morpholine-4-carbonyl)phenyl)-1H-benzo[d]imidazol-1-yl)benzonitrile]: in data set [2] (HeLa, 2 h), the 50% inhibitory concentration (IC50) was below 1000 nM.
